Experiments:
[1] = test system: Adjuvant Arthritis in Rats; experiment: Effect on adjuvant arthritis in rats (footpad swelling); format: in vivo; conditions: male Lewis rats, 3.13 mg/kg/day orally once daily for 14 days, left footpad edema on Day 14; ** p < 0.01 vs. control
Description: The test compound was suspended in 0.5% methyl cellulose and administered orally once daily for 14 days to male Lewis rats (7-week old, Japan Clea), which had been sensitized by the intradermal injection of 0.05 ml Freund's complete adjuvant (0.5% suspension of killed Mycobacterium tuberculosis in liquid paraffin) into the right hind footpad. Immediately before the sensitization (Day 0) and on 14 days after the administration (Day 14), the volume of the edema on the left footpad was measured by using a plethysmometer (manufactured by Ugo Basile Company, Italy) and the suppression rate (%) of footpad swelling relative to the unsensitized rats was calculated according to the following equation.
Suppression rate of footpad swelling (%)={1-[(volume of footpad edema in the treatment group)−(volume of footpad edema in the unsensitized group)]/[(volume of footpad edema in the non-treatment group)−(volume of footpad edema in the unsensitized group)]}×100
The results were expressed by the mean±S.E. in each group (n=6) and tested by Dunnet's comparison with a significance level of 5%.

| Molecule | melting point | Suppression rate of footpad swelling (%) [1] |
| --- | --- | --- |
| CN(C)CC(=O)Oc1ccc(-c2c(Cl)c(CN3C(=O)CCC3=O)nc3sc4c(c23)CCS(=O)(=O)C4)cc1.Cl | 199 to 200 °C |  |
| 3-chloro-2-[(2,5-dioxopyrrolidin-1-yl)methyl]-5,6,7,8-tetrahydro-7-oxo-4-(4-methoxyphenyl)[1]-benzothieno[2,3-b]pyridine ethylene ketal [Example 13] |  | 77** % |
| COc1ccc(-c2c(Cl)c(CN3C(=O)CCC3=O)nc3sc4c(c23)CC[S+]([O-])C4)cc1 (centres unmarked) [Example 22, 1-{[3-Chloro-4-(4-methoxyphenyl)-7-oxido-5,8-dihydro-6H-thiopyrano[4′,3′:4,5]thieno[2,3-b]pyridin-2-yl]methyl}-2,5-pyrrolidinedione] | 268 to 269 °C | 88** % |
| COc1ccc(-c2c(Cl)c(CN3C(=O)CCC3=O)nc3sc4c(c23)CC[S@+]([O-])C4)cc1 [Example 46, (S)-1-{[3-chloro-4-(4-methoxyphenyl)-7-oxido-5,8-dihydro-6H-thiopyrano[4′,3′:4,5]thieno[2,3-b]pyridin-2-yl]methyl}-2,5-pyrrolidinedione] | 217 to 218.5 °C (dec.) |  |
| COc1ccc(-c2c(Cl)c(CN3C(=O)CCC3=O)nc3sc4c(F)c(OC)ccc4c23)cc1 [Example 60, 1-{[3-chloro-8-fluoro-7-methoxy-4-(4-methoxyphenyl)[1]-benzothieno[2,3-b]pyridin-2-yl]methyl}-2,5-pyrrolidinedione] | 215 to 216 °C |  |
| CC(=O)Oc1ccc(-c2c(Cl)c(CN3C(=O)CCC3=O)nc3sc4c(c23)CCS(=O)(=O)C4)cc1 [Example 64, 4-{3-chloro-2-[(2,5-dioxo-1-pyrrolidinyl)methyl]-7,7-dioxido-5,8-dihydro-6H-thiopyrano[4′,3′:4,5]thieno[2,3-b]pyridin-4-yl}phenylacetate] | 272 to 273 °C |  |
| CCC(=O)Oc1ccc(-c2c(Cl)c(CN3C(=O)CCC3=O)nc3sc4c(c23)CCS(=O)(=O)C4)cc1 [Example 65] | 268 to 269 °C |  |
| CCOC(=O)COc1ccc(-c2c(Cl)c(CN3C(=O)CCC3=O)nc3sc4c(c23)CCS(=O)(=O)C4)cc1 [Example 110, ethyl (4-{3-chloro-2-[(2,5-dioxo-1-pyrrolidinyl)methyl]-7,7-dioxidO-5,8-dihydro-6H-thiopyrano[4′,3′:4,5]thieno[2,3-b]pyridin-4-yl}phenoxy)acetate] | 215 to 216 °C |  |
| CC(C)(C)OC(=O)COc1ccc(-c2c(Cl)c(CN3C(=O)CCC3=O)nc3sc4c(c23)CCSC4)cc1 [Example 112, tert-butyl (4-{3-chloro-2-[(2,5-dioxo-1-pyrrolidinyl)methyl]-5,8-dihydro-6H-thiopyrano[4′,3′:4,5]-thieno[2,3-b]pyridin-4-yl}phenoxy)acetate] | 191 to 192 °C |  |
| CC(C)(C)OC(=O)COc1ccc(-c2c(Cl)c(CN3C(=O)CCC3=O)nc3sc4c(c23)CC[S+]([O-])C4)cc1 (centres unmarked) [Example 113, tert-butyl (4-{3-chloro-2-[(2,5-dioxo-1-pyrrolidinyl)methyl]-7-oxido-5,8-dihydro-6H-thiopyrano[4′,3′:4,5]thieno(2,3-b]pyridin-4-yl}phenoxy)-acetate] | 175 to 176 °C |  |
| CC(C)(C)OC(=O)COc1ccc(-c2c(Cl)c(CN3C(=O)CCC3=O)nc3sc4c(c23)CCS(=O)(=O)C4)cc1 [Example 114, tert-butyl (4-{3-chloro-2-[(2,5-dioxo-1-pyrrolidinyl)methyl]-7,7-dioxido-5,8-dihydro-6H-thiopyrano[4′,3′:4,5]thieno[2,3-b]pyridin-4-yl}phenoxy)acetate] | 204 to 205 °C |  |
| O=C(O)COc1ccc(-c2c(Cl)c(CN3C(=O)CCC3=O)nc3sc4c(c23)CC[S+]([O-])C4)cc1 (centres unmarked) [Example 115, (4-{3-chloro-2-[(2,5-dioxo-1-pyrrolidinyl)methyl]-7-oxido-5,8-dihydro-6H-thiopyrano[4′,3′:4,5]thieno[2,3-b]pyridin-4-yl}phenoxy)acetic acid] | 205 to 206 °C |  |
| O=C(O)COc1ccc(-c2c(Cl)c(CN3C(=O)CCC3=O)nc3sc4c(c23)CCS(=O)(=O)C4)cc1 [Example 116, (4-{3-chloro-2-[(2,5-dioxo-1-pyrrolidinyl)methyl]-7,7-dioxido-5,8-dihydro-6H-thiopyrano-[4′,3′:4,5]-thieno[2,3-b]pyridin-4-yl}phenoxy)acetic acid] | 260 to 261 °C |  |

— patent US6653476B2, “Thienopyridine derivatives, their production and use” (Takeda Chemical Industries, Ltd., priority 2000, dated 2003)
